Assay [1] in a line: Inhibition of p70S6K ATP labeling site in human Huh-7 cell lysate at 1 uM by KiNativ Profiling analysis relative to control. To be noted: condition cancer.
For assay [2], the target named is Cyclin-dependent kinase 12 (Homo sapiens) (UniProt Q9NYV4). The assay is described as follows: Inhibition of CRK7 Lys2 labeling site in human Huh-7 cells at 1 uM by KiNativ Profiling analysis relative to control. It is filed as cell-based.
The target in assay [3] is ALK tyrosine kinase receptor (Homo sapiens) (UniProt Q9UM73). The assay is described as follows: Inhibition of ALK (unknown origin) at 1 uM by Ambit Kinomescan binding assay relative to control.
For assay [4], the target named is Tyrosine-protein kinase Srms (Homo sapiens) (UniProt Q9H3Y6). The assay is described as follows: Inhibition of SRMS (unknown origin) at 1 uM by Ambit Kinomescan binding assay relative to control.
Tyrosine-protein kinase Srms (Homo sapiens), sequence (Q9H3Y6 whole entry): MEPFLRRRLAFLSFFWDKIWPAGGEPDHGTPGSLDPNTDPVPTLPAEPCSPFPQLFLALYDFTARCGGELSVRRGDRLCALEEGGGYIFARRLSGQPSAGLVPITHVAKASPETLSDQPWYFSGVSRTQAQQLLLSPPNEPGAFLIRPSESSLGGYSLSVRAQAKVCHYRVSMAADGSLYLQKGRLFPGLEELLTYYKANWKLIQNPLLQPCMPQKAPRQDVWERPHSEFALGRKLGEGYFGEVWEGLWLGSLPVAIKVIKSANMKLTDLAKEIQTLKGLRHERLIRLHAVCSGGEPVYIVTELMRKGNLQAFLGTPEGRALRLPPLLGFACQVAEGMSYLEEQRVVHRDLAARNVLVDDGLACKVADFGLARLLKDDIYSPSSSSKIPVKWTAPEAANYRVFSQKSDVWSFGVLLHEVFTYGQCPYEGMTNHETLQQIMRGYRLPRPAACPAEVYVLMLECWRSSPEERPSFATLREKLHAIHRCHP
The target of assay [5] is T1, Dual specificity mitogen-activated protein kinase kinase 7 (Homo sapiens) (UniProt O14733).
T1 sequence (whole entry): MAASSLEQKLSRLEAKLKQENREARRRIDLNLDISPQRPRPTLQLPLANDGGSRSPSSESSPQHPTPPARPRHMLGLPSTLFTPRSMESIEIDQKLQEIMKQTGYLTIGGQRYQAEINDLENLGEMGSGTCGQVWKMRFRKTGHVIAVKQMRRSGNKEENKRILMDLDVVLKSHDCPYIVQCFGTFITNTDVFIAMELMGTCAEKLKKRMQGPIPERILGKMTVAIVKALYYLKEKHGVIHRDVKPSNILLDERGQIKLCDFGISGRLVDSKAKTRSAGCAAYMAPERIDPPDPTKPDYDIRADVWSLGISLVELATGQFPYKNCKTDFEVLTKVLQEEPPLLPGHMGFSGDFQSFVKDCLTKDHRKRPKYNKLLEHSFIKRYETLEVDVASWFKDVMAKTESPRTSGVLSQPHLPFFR
The assay is described as follows: Inhibition of MAP2K7 Lys2 labeling site in human A-375 cells at 5 uM by KiNativ Profiling analysis relative to control. It is filed as cell-based.

The target in assay [6] is T2, Serine/threonine-protein kinase Sgk3 (Homo sapiens) (UniProt Q96BR1).
T2 sequence (whole entry): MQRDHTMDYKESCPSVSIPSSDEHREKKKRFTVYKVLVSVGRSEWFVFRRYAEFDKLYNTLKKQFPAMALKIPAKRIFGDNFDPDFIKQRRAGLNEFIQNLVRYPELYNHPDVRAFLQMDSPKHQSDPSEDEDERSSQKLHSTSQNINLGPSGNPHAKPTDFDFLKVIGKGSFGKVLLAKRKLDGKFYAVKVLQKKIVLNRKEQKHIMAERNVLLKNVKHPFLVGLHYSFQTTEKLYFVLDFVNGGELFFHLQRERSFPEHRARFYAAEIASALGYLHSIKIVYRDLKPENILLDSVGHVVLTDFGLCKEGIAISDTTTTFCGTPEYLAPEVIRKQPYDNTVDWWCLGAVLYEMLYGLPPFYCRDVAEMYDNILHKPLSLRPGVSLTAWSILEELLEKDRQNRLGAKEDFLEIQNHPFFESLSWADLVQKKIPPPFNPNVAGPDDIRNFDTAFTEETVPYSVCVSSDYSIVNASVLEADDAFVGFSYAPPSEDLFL
The assay is described as follows: Inhibition of SGK3 Lys1 labeling site in human A-375 cells at 5 uM by KiNativ Profiling analysis relative to control. It is filed as cell-based.

Assay [7] addresses Glycogen synthase kinase-3 alpha (Homo sapiens) (UniProt P49840). The assay is described as follows: Inhibition of GSK3A Lys2 labeling site in human A-375 cells at 0.5 uM by KiNativ Profiling analysis relative to control. It is filed as cell-based.
Assay [8] addresses Cyclin-dependent kinase 18 (Homo sapiens) (UniProt Q07002). The assay is described as follows: Inhibition of PCTAIRE3 Lys1 labeling site harbouring SKLTENLVALKEIRLEHEEGAPCTAIR in human A-375 cells at 0.05 uM by KiNativ Profiling analysis relative to control. It is filed as cell-based.
Assay [9] concerns the target Myosin light chain kinase 2, skeletal/cardiac muscle (Homo sapiens) (UniProt Q9H1R3). The assay is described as follows: Inhibition of MYLK2 (unknown origin) at 1 uM by Ambit Kinomescan binding assay relative to control; values are per cent of control.
The target in assay [10] is MAP kinase-interacting serine/threonine-protein kinase 2 (Homo sapiens) (UniProt Q9HBH9). The assay is described as follows: Inhibition of MKNK2 (unknown origin) at 10 uM by Ambit Kinomescan binding assay relative to control.
MAP kinase-interacting serine/threonine-protein kinase 2 (Homo sapiens), sequence (Q9HBH9 whole entry, looked up): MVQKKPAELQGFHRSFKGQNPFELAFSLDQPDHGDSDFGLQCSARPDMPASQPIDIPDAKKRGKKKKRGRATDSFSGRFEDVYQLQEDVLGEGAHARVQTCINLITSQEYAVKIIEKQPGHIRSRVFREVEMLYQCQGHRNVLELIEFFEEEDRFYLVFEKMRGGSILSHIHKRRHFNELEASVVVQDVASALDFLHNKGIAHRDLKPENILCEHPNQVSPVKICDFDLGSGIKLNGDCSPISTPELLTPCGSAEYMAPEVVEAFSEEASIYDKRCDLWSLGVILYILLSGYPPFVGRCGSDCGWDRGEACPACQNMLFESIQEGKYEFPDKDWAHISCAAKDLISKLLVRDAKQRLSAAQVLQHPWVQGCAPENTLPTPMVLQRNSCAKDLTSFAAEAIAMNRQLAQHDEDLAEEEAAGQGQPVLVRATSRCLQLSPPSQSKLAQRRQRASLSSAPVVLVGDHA
Assay [11] addresses TGF-beta receptor type-2 (Homo sapiens) (UniProt P37173). The assay is described as follows: Inhibition of TGFBR2 (unknown origin) at 10 uM by Ambit Kinomescan binding assay.
The target in assay [12] is T3, Aurora kinase A (Homo sapiens) (UniProt O14965).
T3 sequence (whole entry): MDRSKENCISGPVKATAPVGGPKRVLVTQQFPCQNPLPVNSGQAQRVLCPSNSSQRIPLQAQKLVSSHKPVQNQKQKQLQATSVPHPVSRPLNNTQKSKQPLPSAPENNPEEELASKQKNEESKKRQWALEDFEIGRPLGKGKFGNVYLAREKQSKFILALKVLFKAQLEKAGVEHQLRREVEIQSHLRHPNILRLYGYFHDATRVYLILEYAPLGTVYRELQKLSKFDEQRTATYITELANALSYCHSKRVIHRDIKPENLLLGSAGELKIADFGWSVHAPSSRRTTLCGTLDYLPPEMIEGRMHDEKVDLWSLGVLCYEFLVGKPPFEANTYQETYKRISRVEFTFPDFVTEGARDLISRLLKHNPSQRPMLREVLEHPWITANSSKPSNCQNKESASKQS
The assay is described as follows: Inhibition of AurA K2 labeling site harbouring VIHRDIKPENLLLGSAGELK in human Huh-7 cells at 10 uM by KiNativ Profiling analysis relative to control. It is filed as cell-based.

Assay [13] addresses Dual specificity mitogen-activated protein kinase kinase; MEK1/2 (Homo sapiens) (UniProt P36507+Q02750). The assay is described as follows: Inhibition of MAP2K1/2 K2 labeling site in human Huh-7 cells at 1 uM by KiNativ Profiling analysis relative to control. It is filed as cell-based.
Assay [14] concerns the target Vascular endothelial growth factor receptor 1 (Homo sapiens) (UniProt P17948). The assay is described as follows: Inhibition of FLT1 (unknown origin) at 10 uM by Ambit Kinomescan binding assay relative to control; values are per cent of control.

Drawing on ChEMBL document CHEMBL5696442, “Discovery of type II inhibitors of TGFβ-activated kinase 1 (TAK1) and mitogen-activated protein kinase kinase kinase kinase 2 (MAP4K2)” (J Med Chem, 2015), this text covers inhibition, residual activity and percent of control for 3 molecules.

Active and inactive are the calls of the source. The rule behind the calls is not given here.

Vascular endothelial growth factor receptor 1 (Homo sapiens), sequence (P17948 whole entry): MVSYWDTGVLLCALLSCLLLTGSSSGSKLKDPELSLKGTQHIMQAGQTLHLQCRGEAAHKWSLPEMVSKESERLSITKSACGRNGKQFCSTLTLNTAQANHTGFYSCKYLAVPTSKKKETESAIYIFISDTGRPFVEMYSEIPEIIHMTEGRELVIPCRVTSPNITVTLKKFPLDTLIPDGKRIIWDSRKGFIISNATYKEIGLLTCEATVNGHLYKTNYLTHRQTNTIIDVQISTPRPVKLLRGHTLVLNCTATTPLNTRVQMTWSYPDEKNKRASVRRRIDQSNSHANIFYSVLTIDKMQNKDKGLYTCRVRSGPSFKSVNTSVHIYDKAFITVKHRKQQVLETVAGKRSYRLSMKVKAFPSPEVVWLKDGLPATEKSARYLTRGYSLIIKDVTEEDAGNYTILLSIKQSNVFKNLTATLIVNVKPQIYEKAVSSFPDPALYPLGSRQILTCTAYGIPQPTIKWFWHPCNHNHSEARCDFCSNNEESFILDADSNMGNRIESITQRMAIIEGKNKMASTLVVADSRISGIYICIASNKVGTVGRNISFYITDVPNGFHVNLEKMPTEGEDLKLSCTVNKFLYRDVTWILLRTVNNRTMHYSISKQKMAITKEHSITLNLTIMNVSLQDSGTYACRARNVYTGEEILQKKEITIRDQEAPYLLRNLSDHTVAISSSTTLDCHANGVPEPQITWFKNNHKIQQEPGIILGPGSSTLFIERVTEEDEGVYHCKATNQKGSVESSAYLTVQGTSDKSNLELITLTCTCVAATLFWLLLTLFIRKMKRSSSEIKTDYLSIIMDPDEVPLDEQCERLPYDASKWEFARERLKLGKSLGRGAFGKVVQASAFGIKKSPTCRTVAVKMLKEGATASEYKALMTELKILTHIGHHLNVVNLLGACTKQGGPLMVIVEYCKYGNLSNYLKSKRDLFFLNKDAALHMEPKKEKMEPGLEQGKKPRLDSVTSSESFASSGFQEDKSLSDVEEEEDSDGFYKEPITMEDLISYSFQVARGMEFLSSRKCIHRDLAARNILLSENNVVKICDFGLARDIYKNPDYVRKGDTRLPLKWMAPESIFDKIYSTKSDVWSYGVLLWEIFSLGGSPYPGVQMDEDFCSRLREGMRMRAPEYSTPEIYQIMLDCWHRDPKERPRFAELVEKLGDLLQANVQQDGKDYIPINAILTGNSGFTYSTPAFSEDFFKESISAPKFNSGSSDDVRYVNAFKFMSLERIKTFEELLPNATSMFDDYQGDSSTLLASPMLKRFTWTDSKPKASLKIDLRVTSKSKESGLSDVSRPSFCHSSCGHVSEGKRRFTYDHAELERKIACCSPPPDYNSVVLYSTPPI
Cyclin-dependent kinase 18 (Homo sapiens), sequence (Q07002 whole entry): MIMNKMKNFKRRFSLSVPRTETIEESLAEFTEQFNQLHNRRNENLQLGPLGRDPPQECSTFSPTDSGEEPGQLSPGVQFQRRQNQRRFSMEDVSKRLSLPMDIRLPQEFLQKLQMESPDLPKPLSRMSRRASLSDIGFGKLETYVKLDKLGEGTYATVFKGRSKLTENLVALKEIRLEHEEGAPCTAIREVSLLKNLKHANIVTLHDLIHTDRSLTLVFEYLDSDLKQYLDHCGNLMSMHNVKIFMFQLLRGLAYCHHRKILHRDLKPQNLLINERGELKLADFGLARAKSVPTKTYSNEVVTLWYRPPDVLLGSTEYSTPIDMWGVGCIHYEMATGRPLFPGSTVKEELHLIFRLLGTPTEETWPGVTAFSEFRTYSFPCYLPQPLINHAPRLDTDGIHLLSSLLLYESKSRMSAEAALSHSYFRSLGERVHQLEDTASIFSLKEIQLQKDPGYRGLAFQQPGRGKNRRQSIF
Cyclin-dependent kinase 12 (Homo sapiens), sequence (Q9NYV4 whole entry, looked up): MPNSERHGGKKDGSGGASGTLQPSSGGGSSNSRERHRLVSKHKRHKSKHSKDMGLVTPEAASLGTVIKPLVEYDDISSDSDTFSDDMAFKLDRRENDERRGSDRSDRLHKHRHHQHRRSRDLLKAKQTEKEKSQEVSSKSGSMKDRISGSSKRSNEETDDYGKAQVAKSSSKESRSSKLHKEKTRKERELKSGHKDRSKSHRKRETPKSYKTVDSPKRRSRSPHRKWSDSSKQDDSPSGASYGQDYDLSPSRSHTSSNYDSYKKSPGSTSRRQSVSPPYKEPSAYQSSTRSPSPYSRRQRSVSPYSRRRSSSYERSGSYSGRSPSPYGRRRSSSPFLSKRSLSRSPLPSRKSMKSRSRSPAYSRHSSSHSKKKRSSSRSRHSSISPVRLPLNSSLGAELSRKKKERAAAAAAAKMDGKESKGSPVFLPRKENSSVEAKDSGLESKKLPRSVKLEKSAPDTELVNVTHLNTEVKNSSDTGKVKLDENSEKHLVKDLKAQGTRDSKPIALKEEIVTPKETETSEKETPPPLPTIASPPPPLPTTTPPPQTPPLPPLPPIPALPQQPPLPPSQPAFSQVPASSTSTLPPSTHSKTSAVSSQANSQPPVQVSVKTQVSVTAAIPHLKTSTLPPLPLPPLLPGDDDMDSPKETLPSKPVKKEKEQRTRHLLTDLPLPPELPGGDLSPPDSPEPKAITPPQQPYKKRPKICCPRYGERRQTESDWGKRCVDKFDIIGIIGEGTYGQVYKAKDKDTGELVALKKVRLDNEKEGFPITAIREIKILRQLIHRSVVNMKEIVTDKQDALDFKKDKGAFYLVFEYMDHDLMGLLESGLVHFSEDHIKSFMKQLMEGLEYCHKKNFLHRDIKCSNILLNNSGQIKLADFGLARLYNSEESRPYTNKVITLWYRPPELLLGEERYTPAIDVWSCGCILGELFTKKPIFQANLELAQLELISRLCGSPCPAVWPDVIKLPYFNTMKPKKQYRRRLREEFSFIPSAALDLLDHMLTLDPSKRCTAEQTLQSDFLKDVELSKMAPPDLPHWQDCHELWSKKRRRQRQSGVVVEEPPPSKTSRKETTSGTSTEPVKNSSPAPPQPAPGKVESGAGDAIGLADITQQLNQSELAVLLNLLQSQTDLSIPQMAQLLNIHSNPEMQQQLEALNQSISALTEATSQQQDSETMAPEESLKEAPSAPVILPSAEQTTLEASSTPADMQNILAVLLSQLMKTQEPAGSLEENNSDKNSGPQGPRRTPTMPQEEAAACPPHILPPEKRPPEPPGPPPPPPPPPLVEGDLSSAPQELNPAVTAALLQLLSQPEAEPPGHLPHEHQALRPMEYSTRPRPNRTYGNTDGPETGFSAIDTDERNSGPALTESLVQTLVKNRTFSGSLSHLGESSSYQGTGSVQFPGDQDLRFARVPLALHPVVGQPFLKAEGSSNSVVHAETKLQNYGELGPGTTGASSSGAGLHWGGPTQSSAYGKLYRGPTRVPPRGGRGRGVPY
Dual specificity mitogen-activated protein kinase kinase; MEK1/2 (Homo sapiens), sequence (P36507 whole entry, looked up): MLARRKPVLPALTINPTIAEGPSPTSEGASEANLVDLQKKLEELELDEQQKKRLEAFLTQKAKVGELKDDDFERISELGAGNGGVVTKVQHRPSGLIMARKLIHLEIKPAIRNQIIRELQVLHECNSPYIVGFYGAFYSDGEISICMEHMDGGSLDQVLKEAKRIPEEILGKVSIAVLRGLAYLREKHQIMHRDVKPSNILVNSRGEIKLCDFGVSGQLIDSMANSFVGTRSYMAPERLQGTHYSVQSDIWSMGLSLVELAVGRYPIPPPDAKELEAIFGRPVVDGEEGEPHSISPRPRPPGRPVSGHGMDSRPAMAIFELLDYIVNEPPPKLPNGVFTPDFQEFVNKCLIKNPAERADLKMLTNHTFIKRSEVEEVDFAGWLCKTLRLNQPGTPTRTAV
Dual specificity mitogen-activated protein kinase kinase; MEK1/2 (Homo sapiens), sequence (Q02750 whole entry, looked up): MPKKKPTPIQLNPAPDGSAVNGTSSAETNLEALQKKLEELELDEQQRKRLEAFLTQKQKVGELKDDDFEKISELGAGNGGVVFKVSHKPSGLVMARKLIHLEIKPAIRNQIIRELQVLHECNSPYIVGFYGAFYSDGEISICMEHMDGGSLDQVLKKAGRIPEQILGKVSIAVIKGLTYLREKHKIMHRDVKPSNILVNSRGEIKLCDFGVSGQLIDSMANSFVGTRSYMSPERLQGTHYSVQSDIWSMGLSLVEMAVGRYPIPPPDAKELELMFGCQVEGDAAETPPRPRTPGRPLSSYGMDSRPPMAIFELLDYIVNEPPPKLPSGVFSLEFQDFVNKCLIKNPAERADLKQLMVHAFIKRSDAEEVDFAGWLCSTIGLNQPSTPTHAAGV

With `CNc1cc(Oc2cc(C(=O)Nc3cc(N4CCN(C)CC4)cc(C(F)(F)F)c3)ccc2C)ncn1`, the inhibition at 1 µM in assay [1] came out at 2.8%. Also, the inhibition in assay [2] is 40.3%.
`CCN1CCN(Cc2ccc(NC(=O)c3ccc(C)c(/C=C/c4cnc5[nH]ccc5c4OC)c3)cc2C(F)(F)F)CC1`: the inhibition in [3] was 80%; in assay [4], 34%; in assay [5], 57%; in assay [6], -9.4%; in assay [7], 11.4%; in assay [8], 2.7%. The molecule further yielded a residual activity in assay [9] of 4.6%.
Consider `CCN1CCN(Cc2ccc(NC(=O)c3ccc(C)c(Oc4ccnc5[nH]ccc45)c3)cc2C(F)(F)F)CC1`, for which the inhibition result in assay [10], in assay [11] and in assay [12] was “inactive” in each case. Further, in assay [13], the inhibition worked out at 5.5%. Further, the percent of control in [14] was 1.6%.
